Publication PMC10820135, “Pharmacokinetic, Tissue Distribution, Metabolite, and Toxicity Evaluation of the Matrine Derivative, (6aS, 10S, 11aR, 11bR, 11cS)-10-Methylaminododecahydro-3a, 7a-Diaza-benzo (de) Anthracene-8-thione” (Molecules, 2024)

How the values were obtained:
[1] = Metabolite profiling of MASM in rats by UHPLC-QQQ-MS/MS; type: in vivo, Sprague-Dawley rats; conditions: rat, MASM i.p. 80 mg/kg, i.g. 60 mg/kg
Method: The identification of the in vivo metabolites of MASM was conducted using UHPLC-QQQ-MS/MS combined with standard references and deuterium-labeled MASM. The findings are presented in Table 2, while the proposed primary metabolic pathway of MASM in rats is depicted in Figure 4. To provide a comprehensive understanding of the metabolite identification process, three representative metabolites of MASM are presented, with their identification relying on primary and secondary mass spectrometry data, standard references, and deuterium-labeled MASM. The remaining metabolites are detailed in Supplementary File S4. For instance, the identification of the metabolite, M1, as a demethylation product of MASM was accomplished through the utilization of MS, MS/MS data, and the standard reference. […] Moreover, the identification of M1 as the demethylation metabolite of MASM was accomplished using the standard reference synthesized in our laboratory. […] Secondly, the metabolite, M2, of MASM was identified as the dehydrogenation product of MASM through the utilization of MS and MS/MS data. […] Consequently, M2 was identified as a dehydrogenation metabolite of M1. Thirdly, through the utilization of MS, MS/MS data, and deuterium-labeled MASM, the metabolite, M8, of MASM was determined to be a dehydrogenation product of MASM. […] The major MS/MS fragment ions of M8 were found at m/z 111.92, 178.77, 150.16, and 135.85, which aligned with the characteristic cleavage pattern of matrine. Additionally, our lab synthesized deuterium-labeled MASM to further support our proposed structure. […] Consequently, M8 was identified as a dehydrogenation metabolite of MASM. The EIC, MS/MS spectrum of M8 and deuterium-labeled MASM are all depicted in Figure 5C.
UHPLC analysis was performed using a Thermo Accela AS system, employing an ACQUITY UPLC®BEH C18 (Waters Corporation, Wexfords, Ireland) (1.7 µm, 2.1 × 100 mm) column and a binary solvent system consisting of water containing 0.1% formic acid as mobile phase A and acetonitrile as mobile phase B. For pharmacokinetic evaluation, the gradient elution was set as follows: 97% A from 0 to 2 min, 97–70% A from 2 to 3 min, 70–20% A from 3 to 3.5 min, 20% A from 3.5 to 3.6 min, 20–97% A from 3.6 to 3.7 min, and 97% A from 3.7 to 5 min. For the metabolic test, the gradient elution in full scan mode was set as follows: 97% A from 0 to 2 min, 97–70% A from 2 to 4 min, 70–20% A from 4 to 6 min, 20% A from 6 to 7 min, 20–97% A from 7 to 8 min, and 97% A from 8 to 10 min. The flow rate was 0.2 mL/min, with a temperature of 40 °C maintained and an injection volume of 5 μL. The QQQ-MS/MS analysis was conducted using a Thermo TSQ QUANTUM ACCESS MAX system equipped with an electrospray ionization (ESI) source. The spray voltages were set at 4.0 kV and 2.5 kV for positive and negative ion modes, respectively; capillary and vaporizer temperatures were 320 °C and 350 °C, respectively; sheath and aux gas pressures were 35 and 10 psi, respectively.
Seventy Sprague-Dawley rats were fasted overnight before dosing, with free access to water. Subsequently, the rats were randomly and equally divided into 7 groups: the control groups received 3 different routes of administration: intravenous, intraperitoneal, and intragastric (NS, saline 1 mL/100 g); MASM intraperitoneal group (A, i.p. 80 mg/kg), MASM intragastrical group (B, i.g. 60 mg/kg), MASM intravenous group (C, i.v. 15 mg/kg), and DMASM intragastrical group (D, i.g. 60 mg/kg). It is important to note that the recommended clinical dose of matrine injection is 0.15 g, which is equivalent to a dosage of 15 mg/kg in rats. MASM was administered via tail vein injection at a dosage of 1 mL/100 g for intravenous dosing, while for intraperitoneal dosing, MASM was injected at the lower-right side of the abdomen of rats. […]

[2] = cited from earlier work
mice = conditions: cited from earlier work

Structure (SMILES) | Method of Administration after which the metabolite of MASM was found [1] | also measured
CN[C@@H]1CC(=S)N2CC3CCCN4C=CCC(C34)C2C1 (stereo partly shown) [M8] | i.g. | –
CNC1CC(S)N2CC3CCCN4CCCC(C34)C2C1 (stereo not shown) [M6] | i.p. i.g. | –
O=C1CCC[C@@H]2[C@H]3CCCN4CCC[C@@H](CN12)[C@@H]34 [matrine] | – | time of peak plasma concentration of matrine ([2]; after oral administration, ref Zhang et al. 11): 2.1 h; bioavailability of matrine ([2]; reported value, ref Yang et al. 12): 18.5%; LD50 of matrine (mice): 83.21 mg/kg
O=C1C=CC[C@@H]2[C@H]3CCC[N+]4([O-])CCC[C@@H](CN12)[C@@H]34 (stereo partly shown) [M4, oxysophocarpine] | i.p. i.g. | –

The next lines start with results.

Method of Administration after which the metabolite of MASM was found [1] | Structure (SMILES) | also measured
i.g. | O=CNC1CC(=S)N2CC3CCCN4CCCC(C34)C2C1 (stereo not shown) [M10] | –
i.g. | OCNC1CC(=S)N2CC3CCCN4CCCC(C34)C2C1 (stereo not shown) [M9] | –
i.p. i.g. | O=C1CCC[C@@H]2[C@H]3CCC[N+]4([O-])CCC[C@@H](CN12)[C@@H]34 (stereo partly shown) [M5, oxymatrine] | –
i.p. i.g. | NC1CC(=S)N2CC3CCCN4CCCC(C34)C2C1 (stereo not shown) [M7] | –
